Laboratory results taken from ChEMBL document CHEMBL3507680, “University of Dundee, Gates Library screen for HepG2 cell viability”.

Assay: Human HepG2 cell viability assay in 384 well format
Type: toxicity, cell-based
Parameters: dose 125 nL, time 70.5 hour; concentration not given beside the values
Details: HepG2 cells, read-out: Inhibition

Row | Structure (SMILES) | cytotoxicity at 70.5 h [%]
1 | Cc1cccc(C(C(=O)N2CC(c3ccccn3)C2)N(C)C)c1 (centres undefined) | -3.41
2 | CC(O)c1cn(CC2CCN(C(=O)CN(C)C(C)C)CC2)nn1 (centres undefined) | -6.36
3 | O=C(c1ccnc(-n2cnnc2)c1)N1CCCC2(CCOC2)C1 (centres undefined) | -2.19
4 | COc1cc2cc(C(=O)NC(C)C(=O)O)n(C)c2c(OC)c1OC (centres undefined) | -7.07
5 | O=C(C1CC(=O)N(c2ccccc2)C1)N1CCC2(CC1)OCCO2 (centres undefined) | 5.21
6 | CCCc1cc(=O)[nH]c(-c2ccccc2CN(C)CCn2cccn2)n1 | 5.03
7 | Cc1ccc(-n2ncc3c2CCCC3N)cc1C (centres undefined) | -4
8 | Cc1nc2sccn2c1C(=O)N1CCc2c(nc(N)[nH]c2=O)C1 | -4.21
9 | O=S(=O)(c1cc(F)ccc1F)N1CCCC1c1ccco1 (centres undefined) | -6.01
10 | O=c1[nH]c(NC2CCCC2)nc2nccc(-c3cccs3)c12 | -4.19
11 | COCCCn1c(CN2CCCCO2)cnc1S(=O)(=O)C1CCCC1 | -4.4
12 | Cc1noc(-c2ccc(N[C@H]3CCCCNC3=O)nc2)n1 | -1.42
13 | CO[C@@]1(C)C[C@@H](O)C12CCN(C(=O)C1(c3ccccc3F)CC1)CC2 | 9.4
14 | CC(C)CNC(=O)CN(C)S(C)(=O)=O | 0.607
15 | Cc1cc(=O)[nH]c(SC(C)C(=O)N2CCCN(C3CCCC3)CC2)n1 (centres undefined) | 6.46
16 | CC(=O)N[C@H]1CN(CC(=O)NCc2ccccc2C)C[C@@H]1C(C)C | -4.45
17 | CCC(NC(=O)C1CCN(S(C)(=O)=O)CC1)c1ccc(OC)cc1 (centres undefined) | -4.59
18 | CN(Cc1ccoc1)C(=O)C1CC(=O)N(Cc2ccncc2)C1 (centres undefined) | -8.62
19 | Cc1ccc(C(=O)NCCN2CCOCC2)cc1N(C)S(C)(=O)=O | 1.25
20 | Cc1c(C(=O)N(C)C)cccc1N(C)S(C)(=O)=O | 0.872
21 | CC(C)CN1CCC(NCCNc2cccnc2)CC1 | -17.2
22 | C/C=C(\C)CN1C[C@H](c2cccc(OC)c2)[C@@H](N)C1 | -5.71

Row | Structure (SMILES) | cytotoxicity at 70.5 h [%]
23 | CCN(CC)C(=O)[C@@H]1C[C@H](N)CN1C(=O)c1cc2c([nH]c1=O)CCC2 | 14.4
24 | CN1CCN(C(=O)C2CN(Cc3cc4ccccc4o3)CCN2)CC1 (centres undefined) | -3.72
25 | CC(=O)Nn1ccc2c(nnc3c(-c4ccccc4)cnn32)c1=O | -28.5
26 | C[C@@H]1CN(C(=O)CCCN2CCOCC2)CC[C@@]1(O)C1CCC1 | -3.73
27 | Cc1ccc2c(c1)OC(C)(C)CC2NC(=O)C1CCN(S(C)(=O)=O)CC1 (centres undefined) | -5.08
28 | O=C(Nc1ccc2c(c1)OCO2)N1CCCC1c1ccco1 (centres undefined) | -4.29
29 | Cc1cccc(C(C(=O)NCCCc2nnc3ccccn23)N(C)C)c1 (centres undefined) | 20.2
30 | COc1ccc(CNC(=O)CCN2CCOC(C(F)(F)F)C2)cc1 (centres undefined) | -7.56
31 | Cc1nc(O)cc(CNC(=O)CC[C@@H]2CCCN3CCCC[C@H]23)n1 | -9.94
32 | NCCO[C@H]1C[C@@H](O)C12CCN(C(=O)CCOc1ccccc1)CC2 | -0.434
33 | COc1cccc2c1OCC(CNC(=O)CSc1ccccn1)C2 (centres undefined) | -6.38
34 | COc1ccc(CN(C)c2nccc(-c3cn(C)nc3C)n2)cc1 | 13.2
35 | CCN(Cc1noc(CC(C)C)n1)Cc1ccccc1OCC(=O)O | -2.84
36 | CCc1ccc(NC(=O)C2CCN(C(=O)COC)CC2)cc1 | -9.16
37 | CC1(C)CN(C(=O)CC2CCC2)C[C@]1(C)O | -2.02
38 | COc1ccc(NC(=O)Cn2nc(C)c(C)cc2=O)cc1Cl | 0.971
39 | COCCOC1CCN(C(C(=O)O)c2ccc(F)c(Cl)c2)CC1 (centres undefined) | -9.08
40 | Cc1nnsc1C(=O)N1C[C@H]2CC[C@@H]1CN(c1cnccn1)C2 | -5.21
41 | OCC1(Cc2ccc(F)cc2F)CCCN(Cc2ccncc2)C1 (centres undefined) | -5.76
42 | COc1cccc2c1OCC(CNC(=O)Cc1c(C)nc(N)nc1C)C2 (centres undefined) | -7.12
43 | CC(C)(C)C(=O)NCCNc1cc(N2CCCC2)ncn1 | -8.01
44 | COc1cccc(NC(=O)c2cc3c([nH]c2=O)CCCC3=O)c1 | -8.19
